Here are results for 13 compounds from patent US20220220152A1, “BIVALENT ANTAGONISTS OF INHIBITORS OF APOPTOSIS PROTEINS” (Hepagene Therapeutics (HK) Limited, priority 2019, published 2022).

Experiment [1] deals with T1, cIAP2-BIR3 (Homo sapiens, UniProt Q13489).
T1 construct: cIAP2-BIR3; purchased Reaction Biology APT-11-372
As to the kind of experiment: cIAP2-BIR3 fluorescence polarization binding assay. Conditions: FP, probe AbuRPFK-5FAM (SM5F) 5 nM, cIAP2-BIR3 80 nM, 60 min at 25° C. In outline: (§1)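 Fluorescence polarization competition using 5-carboxyfluorescein-labelled peptide probe AbuRPFK-5FAM; protein and compound preincubated 15 min, probe added, then 60 min at 25° C.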

Experiment [2] has as its target T2, cIAP1-BIR3 (Homo sapiens, UniProt Q13490).
T2 construct: cIAP1-BIR3; purchased Reaction Biology APT-11-370
The experiment can be described thus: cIAP1-BIR3 fluorescence polarization binding assay. Conditions: FP, probe AbuRPFK-5FAM (SM5F) 5 nM, cIAP1-BIR3 15 nM, 60 min at 25° C. The gist of the method: as §1
A general note: In fluorescence polarisation assays a small probe gives low polarisation when free and higher when bound to something large.

Experiment [3] has as its target T3, XIAP-BIR3 (Homo sapiens, UniProt P98170).
T3 construct: XIAP-BIR3; purchased Reaction Biology APT-11-374
As to the kind of experiment: XIAP-BIR3 fluorescence polarization binding assay. As to conditions: FP, probe AbuRPFK-5FAM (SM5F) 5 nM, XIAP-BIR3 40 nM, 60 min at 25° C. In outline: as §1

T1 sequence (Q13489 238-349 limits assumed): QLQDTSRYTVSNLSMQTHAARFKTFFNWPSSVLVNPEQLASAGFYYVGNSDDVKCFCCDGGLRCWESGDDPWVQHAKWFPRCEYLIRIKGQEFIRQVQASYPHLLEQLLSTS
T3 sequence (P98170 241-356 limits assumed): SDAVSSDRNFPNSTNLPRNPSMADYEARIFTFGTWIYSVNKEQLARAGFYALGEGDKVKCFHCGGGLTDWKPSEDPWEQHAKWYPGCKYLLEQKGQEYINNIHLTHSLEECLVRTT
T2 sequence (Q13490 253-363 limits assumed): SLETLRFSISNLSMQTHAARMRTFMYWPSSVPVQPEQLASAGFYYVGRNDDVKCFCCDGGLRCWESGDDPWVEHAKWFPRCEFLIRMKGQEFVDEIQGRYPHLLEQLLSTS

Usually IC50 stands for the concentration needed to halve the response being measured. High values mean lower potency, low ones higher potency. On to `CN[C@@H](C)C(=O)N[C@@H](C)C(=O)N1CCC[C@H]1C(=O)N[C@@H]1CCCc2c(-c3cccc4c3CCC[C@H]4NC(=O)[C@@H]3CCCN3C(=O)[C@H](C)NC(=O)[C@H](C)NC)cccc21` [Compound V-H, (2S)-1-[(2S)-2-[(2S)-2-(methylamino)propanamido]propanoyl]-N-[(5R,5′R)-5′-[(2S)-1-[(2S)-2-[(2S)-2-(methylamino)propanamido]propanoyl]pyrrolidine-2-amido]-5H,5′H,6H,6′H,7H,7′H,8H,8′H-[1,1′-binaphthalen]-5-yl]pyrrolidine-2-carboxamide], for which the IC50 in experiment [1] lay within 10 to 100 nM; in experiment [2], 1 to 10 nM; in experiment [3], 100 to 1000 nM.

Turning to `CN[C@@H](C)C(=O)N[C@H](C(=O)N1CCC[C@H]1C(=O)N[C@@H]1CCCc2c(-c3cccc4c3CCC[C@H]4NC(=O)[C@@H]3CCCN3C(=O)[C@@H](NC(=O)[C@H](C)NC)C(C)(C)C)cccc21)C(C)(C)C` [Compound V-J, (2S)-1-[(2S)-3,3-dimethyl-2-[(2S)-2-(methylamino)propanamido]butanoyl]-N-[(5R,5′R)-5′-[(2S)-[(2S)-3,3-dimethyl-2-[(2S)-2-(methylamino)propanamido]butanoyl]pyrolidine-2-amido]-5H,5′ H,6H,6′H,7H,7′H,8H,8′ H-[1,1′-binaphthalen]-5-yl]pyrrolidine-2-carboxamide], the IC50 in experiment [1] fell in the range of 10 to 100 nM; in experiment [2], 1 to 10 nM; in experiment [3], 10 to 100 nM.

As to `CN[C@@H](C)C(=O)N[C@H](C(=O)N1CCC[C@H]1C(=O)N[C@@H]1CCCc2c(-c3cccc4c3CCC[C@H]4NC(=O)[C@@H]3CCCN3C(=O)[C@@H](NC(=O)[C@H](C)NC)C3CCOCC3)cccc21)C1CCOCC1` [Compound V-K, (S)-1-((S)-2-((S)-2-(methylamino)propanamido)-2-(tetrahydro-2H-pyran-4-yl)acetyl)-N-((5R,5′R)-5′-((S)-1-((S)-2-((S)-2-(methylamino)propanamido)-2-(tetrahydro-2H-pyran-4-yl)acetyl)pyrrolidine-2-carboxamido)-5,5′,6,6′,7,7′,8,8′-octahydro-[1,1′-binaphthalen]-5-yl)pyrrolidine-2-carboxamide], the IC50 fell in the range of 10 to 100 nM in experiment [1], 1 to 10 nM in experiment [2] and 10 to 100 nM in experiment [3].

As for `CN[C@@H](C)C(=O)N[C@H](C(=O)N1C[C@@H](O)C[C@H]1C(=O)N[C@@H]1CCCc2c(-c3cccc4c3CCC[C@H]4NC(=O)[C@@H]3C[C@H](O)CN3C(=O)[C@@H](NC(=O)[C@H](C)NC)C3CCCCC3)cccc21)C1CCCCC1` [Compound V-L, (2S,4S)-1-[(2S)-2-cyclohexyl-2-[(2S)-2-(methylamino)propanamido]acetyl]-N-[(5R,5′R)-5′-[(2S,4S)-1-[(2S)-2-cyclohexyl-2-[(2S)-2-(methylamino)propanamido]acetyl]-4-hydroxypyrrolidine-2-amido]-5H,5′H,6H,6′H,7H,7′H,8H,8′H-[1,1′-binaphthalen]-5-yl]-4-hydroxypyrrolidine-2-carboxamide], the IC50 was in the range of 10 to 100 nM in experiment [1], 1 to 10 nM in experiment [2] and 10 to 100 nM in experiment [3].

As to `CN[C@@H](C)C(=O)N[C@H](C(=O)N1CCC[C@H]1C(=O)N[C@@H]1CCCc2c(-c3cccc4c3CCC[C@H]4NC(=O)[C@@H]3CCCN3C(=O)[C@@H](NC(=O)[C@H](C)NC)C(C)C)cccc21)C(C)C` [Compound V-M, (2S)-1-[(2S)-3-methyl-2-[(2S)-2-(methylamino)propanamido]butanoyl]-N-[(5R,5′R)-5′-[(2S)-1-[(2S)-3-methy-2-[(2S)-2-(methylamino)propanamido]butanoyl]pyrolidine-2-amido]-5H,5′H,6H,6′H,7H,7′H,8H,8′H-[1,1′-binaphthalen]-5-yl]pyrrolidine-2-carboxamide], the values for the IC50 in experiment [1], in experiment [2] and in experiment [3] were 1 to 10 nM, 1 to 10 nM and 10 to 100 nM, respectively.

On to `CN[C@@H](C)C(=O)N[C@H](C(=O)N1CCC[C@H]1C(=O)N[C@@H]1CCCc2c(-c3cccc4c3CCC[C@H]4NC(=O)[C@@H]3CCCN3C(=O)[C@@H](NC(=O)[C@H](C)NC)C3CCCCC3)cccc21)C1CCCCC1` [Compound V-N, (2S)-1-[(2S)-2-cyclohexyl-2-[(2S)-2-(methylamino)propanamido]acetyl]-N-[(1R)-5-[(5R)-5-[(2S)-1-[(2S)-2-cyclohexyl-2-[(2S)-2-(methylamino)propanamido]acetyl]pyrolidine-2-amido]-5,6,7,8-tetrahydronaphthalen-1-yl]-1,2,3,4-tetrahydronaphthalen-1-yl]pyrrolidine-2-carboxamide], for which the IC50 in experiment [1], in experiment [2] and in experiment [3] was 1 to 10 nM throughout.

Regarding `CC[C@H](NC(=O)[C@H](C)NC)C(=O)N1CCC[C@H]1C(=O)N[C@@H]1CCc2c(-c3cccc4c3CC[C@H]4NC(=O)[C@@H]3CCCN3C(=O)[C@H](CC)NC(=O)[C@H](C)NC)cccc21` [Compound V-O, (2S,2'S)—N,N′-((1R,1′R)-2,2′,3,3′-tetrahydro-1H,1′H-[4,4′-biindene]-1,1′-diyl)bis(1-((S)-2-((S)-2-(methylamino)propanamido)butanoyl)pyrrolidine-2-carboxamide)], the IC50 lay within 10 to 100 nM in experiment [1], 1 to 10 nM in experiment [2] and 10 to 100 nM in experiment [3].

With `CN[C@@H](C)C(=O)N[C@H](C(=O)N1CCC[C@H]1C(=O)N[C@@H]1CCOc2c(-c3cccc4c3OCC[C@H]4NC(=O)[C@@H]3CCCN3C(=O)[C@@H](NC(=O)[C@H](C)NC)C3CCCCC3)cccc21)C1CCCCC1` [Compound V-P, (S)-1-((S)-2-cyclohexyl-2-((S)-2-(methylamino)propanamido)acetyl)-N-((4R,4′R)-4′-((S)-1-((S)-2-cyclohexyl-2-((S)-2-(methylamino)propanamido)acetyl)pyrrolidine-2-carboxamido)-[8,8′-bichroman]-4-yl)pyrrolidine-2-carboxamide], the results for the IC50 in experiment [1], in experiment [2] and in experiment [3] were 10 to 100 nM, 1 to 10 nM and 10 to 100 nM, respectively.

Take `CN[C@@H](C)C(=O)N[C@H](C(=O)N1CCC[C@H]1C(=O)N[C@@H]1CCOc2c(-c3cccc4c3OCC[C@H]4NC(=O)[C@@H]3CCCN3C(=O)[C@@H](NC(=O)[C@H](C)NC)C3CCOCC3)cccc21)C1CCOCC1` [Compound V-Q, (S)-1-((S)-2-((S)-2-(methylamino)propanamido)-2-(tetrahydro-2H-pyran-4-yl)acetyl)-N-((4R,4′R)-4′-((S)-1-((S)-2-((S)-2-(methylamino)propanamido)-2-(tetrahydro-2H-pyran-4-yl)acetyl)pyrrolidine-2-carboxamido)-[8,8′-bichroman]-4-yl)pyrrolidine-2-carboxamide]: the IC50 in experiment [1] lay in the range of 10 to 100 nM; in experiment [2], 1 to 10 nM; in experiment [3], 10 to 100 nM.

As to `CN[C@@H](C)C(=O)N[C@H](C(=O)N1CCC[C@H]1C(=O)N[C@@H]1CCc2c(-c3cccc4c3CC[C@H]4NC(=O)[C@@H]3CCCN3C(=O)[C@@H](NC(=O)[C@H](C)NC)C3CCOCC3)cccc21)C1CCOCC1` [Compound V-R, (S)-1-((S)-2-((S)-2-(methylamino)propanamido)-2-(tetrahydro-2H-pyran-4-yl)acetyl)-N-((1R,1′R)-1′-((S)-1-((S)-2-((S)-2-(methylamino)propanamido)-2-(tetrahydro-2H-pyran-4-yl)acetyl)pyrrolidine-2-carboxamido)-2,2′,3,3′-tetrahydro-1H,1′H-[4,4′-biinden]-1-yl)pyrrolidine-2-carboxamide], the IC50 in experiment [1] lay within 10 to 100 nM; in experiment [2], 1 to 10 nM; in experiment [3] it was 10 to 100 nM.

Regarding `CN[C@@H](C)C(=O)N[C@H](C(=O)N1CCC[C@H]1C(=O)N[C@@H]1CCCc2c(Nc3cccc4c3CCC[C@H]4NC(=O)[C@@H]3CCCN3C(=O)[C@@H](NC(=O)[C@H](C)NC)C3CCCCC3)cccc21)C1CCCCC1` [Compound VI, (S)-1-((S)-2-cyclohexyl-2-((S)-2-(methylamino)propanamido)acetyl)-N—((R)-5-(((R)-5-((S)-1-((S)-2-cyclohexyl-2-((S)-2-(methylamino)propanamido)acetyl)pyrrolidine-2-carboxamido)-5,6,7,8-tetrahydronaphthalen-1-yl)amino)-1,2,3,4-tetrahydronaphthalen-1-yl)pyrrolidine-2-carboxamide], the IC50 was in the range of 10 to 100 nM in experiment [1], 1 to 10 nM in experiment [2] and 10 to 100 nM in experiment [3].

As to `CN[C@@H](C)C(=O)N[C@H](C(=O)N1CCC[C@H]1C(=O)N[C@@H]1CCCc2c(Nc3cccc4c3CCC[C@H]4NC(=O)[C@@H]3CCCN3C(=O)[C@@H](NC(=O)[C@H](C)NC)C3CCOCC3)cccc21)C1CCOCC1` [Compound VI-A, (S)-1-((S)-2-((S)-2-(methylamino)propanamido)-2-(tetrahydro-2H-pyran-4-yl)acetyl)-N—((R)-5-(((R)-5-((S)-1-((S)-2-((S)-2-(methylamino)propanamido)-2-(tetrahydro-2H-pyran-4-yl)acetyl)pyrrolidine-2-carboxamido)-5,6,7,8-tetrahydronaphthalen-1-yl)amino)-1,2,3,4-tetrahydronaphthalen-1-yl)pyrrolidine-2-carboxamide], the IC50 was 10 to 100 nM in experiment [1], 1 to 10 nM in experiment [2] and 10 to 100 nM in experiment [3].

`CN[C@@H](C)C(=O)N[C@H](C(=O)N1CCC[C@H]1C(=O)N[C@@H]1CCCc2c(Nc3cccc4c3CCC[C@H]4NC(=O)[C@@H]3CCCN3C(=O)[C@@H](NC(=O)[C@H](C)NC)C(C)C)cccc21)C(C)C` [Compound VI-B, (S)-1-(methyl-L-alanyl-L-valyl)-N—((R)-5-(((R)-5-((S)-1-(methyl-L-alanyl-L-valyl)pyrolidine-2-carboxamido)-5,6,7,8-tetrahydronaphthalen-1-yl)amino)-1,2,3,4-tetrahydronaphthalen-1-yl)pyrrolidine-2-carboxamide]: the IC50 in experiment [1] lay in the range of 10 to 100 nM; in experiment [2], 1 to 10 nM; in experiment [3], 10 to 100 nM.
